Source: ChEMBL document CHEMBL6177951, “Synthesis and anti-MRSA activity of quaternized small molecule antimicrobial peptide mimics based on norharmane” (Eur J Med Chem, 2025)
Calls of active or inactive are those of the source. The calls are words filed in the database; no cut-off is given here.

How the values were obtained:
Staphylococcus aureus [1] = assay: Antibacterial activity against Staphylococcus aureus ATCC 29213 assessed as inhibition of bacterial growth incubated for 14 hrs by two-fold serial dilution method; format: functional
Staphylococcus aureus [2] = assay: Antibacterial activity against methicillin-resistant Staphylococcus aureus ATCC 43300 assessed as inhibition of bacterial growth incubated for 14 hrs by two-fold serial dilution method; format: functional
Staphylococcus aureus [3] = assay: Antibacterial activity against methicillin-resistant Staphylococcus aureus ATCC 33591 assessed as inhibition of bacterial growth incubated for 14 hrs by two-fold serial dilution method; format: functional
Staphylococcus aureus [4] = assay: Antibacterial activity against methicillin-resistant Staphylococcus aureus clinical isolate M-17 incubated for 14 hrs by two-fold serial dilution method; format: functional
Staphylococcus aureus [5] = assay: Antibacterial activity against Staphylococcus aureus ATCC 33591 assessed as log reduction in bacterial growth at 1 times MIC measured at 6 hrs by time-kill kinetic assay; format: functional
Staphylococcus aureus [6] = assay: Antibacterial activity against Staphylococcus aureus ATCC 33591 assessed as log reduction in bacterial growth at 2 times MIC measured at 6 hrs by time-kill kinetic assay; format: functional
Staphylococcus aureus [7] = assay: Antibacterial activity against Staphylococcus aureus ATCC 33591 assessed as log reduction in bacterial growth at 4 times MIC measured at 6 hrs by time-kill kinetic assay; format: functional
[8] = Hemolytic activity in sheep RBC assessed as hemolysis at 256 times MIC incubated for 1 hrs relative to control; format: toxicity, cell-based, Ovis aries, Erythrocyte; conditions: sheep red blood cells, read-out: Activity
[9] = Hemolytic activity in sheep RBC assessed as hemolysis at 1024 ug/ml incubated for 1 hrs relative to control; format: toxicity, cell-based, Ovis aries, Erythrocyte; conditions: sheep red blood cells, at 1024 µg/mL, read-out: Activity
L02 = assay: Cytotoxicity against human L02 cells assessed as reduction in cell viability at 4 ug/ml incubated for 24 hrs by CCK-8 assay relative to control; format: toxicity, cell-based; conditions: l02, 24 h, at 4 µg/mL
[10] = Toxicity in female Kunming mouse assessed as abnormality inside skin at 5 to 20 mg/kg, sc measured after 48 hrs; format: organism-based; conditions: in vivo, dose 5-20 mg/kg
[11] = Toxicity in female Kunming mouse assessed as pathological changes in skin tissue at 5 to 20 mg/kg, sc measured after 48 hrs by H and E staining based analysis; format: organism-based; conditions: in vivo, dose 5-20 mg/kg
[12] = Acute toxicity in female Kunming mouse assessed as mortality at 500 to 2000 mg/kg, sc measured after 7 days; format: organism-based; conditions: in vivo, 168 h, dose 500-2000 mg/kg, time 7 day
[13] = Toxicity in female Kunming mouse assessed as pathological changes in liver at 500 to 2000 mg/kg, sc measured after 7 days by H and E staining based analysis; format: organism-based; conditions: in vivo, 168 h, dose 500-2000 mg/kg, time 7 day
[14] = Toxicity in female Kunming mouse assessed as pathological changes in kidney at 500 to 2000 mg/kg, sc measured after 7 days by H and E staining based analysis; format: organism-based; conditions: in vivo, 168 h, dose 500-2000 mg/kg, time 7 day
[15] = Toxicity in female Kunming mouse assessed as inflammatory response in liver at 500 to 2000 mg/kg, sc measured after 7 days by H and E staining based analysis; format: organism-based; conditions: in vivo, 168 h, dose 500-2000 mg/kg, time 7 day
[16] = Toxicity in female Kunming mouse assessed as inflammatory response in kidney at 500 to 2000 mg/kg, sc measured after 7 days by H and E staining based analysis; format: organism-based; conditions: in vivo, 168 h, dose 500-2000 mg/kg, time 7 day
Staphylococcus aureus [17] = assay: In vivo antibacterial activity against methicillin-resistant Staphylococcus aureus infected in female Kunming mouse skin infection model assessed as log reduction in bacterial load at 5 mg/kg measured after 48 hrs (reference value: 14.34 log10CFU/g); format: functional
Staphylococcus aureus [18] = assay: In vivo antibacterial activity against methicillin-resistant Staphylococcus aureus infected in female Kunming mouse skin infection model assessed as appearance of smooth inside skin at 20 mg/kg measured after 48 hrs; format: functional, organism-based
Staphylococcus aureus [19] = assay: In vivo antibacterial activity against methicillin-resistant Staphylococcus aureus infected in female Kunming mouse skin infection model assessed as reduction in inflammatory cells at 5 to 20 mg/kg measured after 48 hrs by H and E staining based analysis; format: functional, organism-based; conditions: dose 5-20 mg/kg
Staphylococcus aureus [20] = assay: Antibiofilm activity against methicillin-resistant Staphylococcus aureus assessed as inhibition of biofilm formation at 4 ug/ml incubated for 24 hrs by crystal violet staining based analysis relative to control; format: functional; design: scale not given: the % may be the effect or the level left; conditions: dose 4 µg/ml
Staphylococcus aureus [21] = assay: Induction of morphological changes in methicillin-resistant Staphylococcus aureus assessed as appearance of holes in cells at 0.5 ug/ml incubated for 6 hrs by SEM analysis; format: functional, organism-based; conditions: dose 0.5 µg/ml
Staphylococcus aureus [22] = assay: Antibacterial activity against methicillin-resistant Staphylococcus aureus assessed as change in cell surface zeta potential at 256 ug/ml incubated for 8 hrs; format: functional, organism-based; conditions: dose 256.0 µg/ml
Cell membrane = assay: Induction of cell membrane integrity in methicillin-resistant Staphylococcus aureus assessed as appearance of blue and red fluorescence at 0.25 ug/ml incubated for 8 hrs by DAPI/PI staining based fluorescence microscopic analysis; format: subcellular; conditions: dose 0.25 µg/ml
Staphylococcus aureus [23] = assay: Antibacterial activity against methicillin-resistant Staphylococcus aureus assessed as reduction in metabolic activity at 2 ug/ml incubated for 8 hrs by alamar blue staining based analysis relative to control; format: functional; design: scale not given: the % may be the effect or the level left; conditions: dose 2 µg/ml
Staphylococcus aureus [24] = assay: Antibacterial activity against methicillin-resistant Staphylococcus aureus assessed as reduction in LDH activity incubated for 8 hrs; format: functional, organism-based; conditions: dose 0.25-2 µg/ml
Staphylococcus aureus [25] = assay: Induction of oxidative damage in methicillin-resistant Staphylococcus aureus assessed as loss of GSH activity incubated for 8 hrs; format: functional, organism-based; conditions: dose 0.25-2 µg/ml
Calf thymus DNA [26] = assay: Binding affinity to calf thymus DNA assessed as change in enthalpy at 3 uM by ITC assay; format: nucleic-acid assay; conditions: Bos taurus
Calf thymus DNA [27] = assay: Binding affinity to calf thymus DNA assessed as change in entropy at 3 uM by ITC assay; format: nucleic-acid assay; conditions: Bos taurus
Staphylococcus aureus [28] = assay: Antibacterial activity against methicillin-resistant Staphylococcus aureus assessed as increase MIC incubated for 6 hrs in presence of 70 to 100% sheep plasma; format: functional

C[n+]1ccc2c3ccccc3n(CCCCCCCCCCCn3c4ccccc4c4cc[n+](C)cc43)c2c1.[I-].[I-]
MIC (Staphylococcus aureus [1]): 1 µg/mL
MIC (Staphylococcus aureus [2]): 1 µg/mL
MIC (Staphylococcus aureus [3]): 0.25 µg/mL
MIC (Staphylococcus aureus [4]): 0.5 µg/mL
Activity (Staphylococcus aureus [5]): 3.95 log10CFU/ml
Activity (Staphylococcus aureus [6]): 4.26 log10CFU/ml
Activity (Staphylococcus aureus [7]): 5.31 log10CFU/ml
hemolysis at 1 h, 256 times MIC [8]: < 10%
hemolysis at 1 h, 1024 ug/ml [9]: 26.4%
Activity (L02): 71.86%
Activity [10]: Non-toxic
Activity [11]: Non-toxic
Activity [12]: Non-toxic
Activity [13]: Non-toxic
Activity [14]: Non-toxic
Activity [15]: Non-toxic
Activity [16]: Non-toxic
Activity (Staphylococcus aureus [17]): 4.85 log10CFU/g
Activity (Staphylococcus aureus [18]): Active
Activity (Staphylococcus aureus [19]): Active
Activity (Staphylococcus aureus [20]): 98%
Activity (Staphylococcus aureus [21]): Active
Activity (Staphylococcus aureus [22]): Active
Activity (Cell membrane): Active
Activity (Staphylococcus aureus [23]): 64.56%
Activity (Staphylococcus aureus [24]): Dose-dependent-effect
Activity (Staphylococcus aureus [25]): Dose-dependent-effect
deltaH (Calf thymus DNA [26]): -0.223 kcal/mol
deltaS (Calf thymus DNA [27]): 99.2 J/mol.K
MIC (Staphylococcus aureus [28]): 0.5 µg/mL
